From US9855204B1, “Methods and compositions for treating androgenetic alopecia” (priority 2015, dated 2018)

How the values were obtained:
[1] = tested on: Androgenetic Alopecia Males; assay: Androgenetic Alopecia Males Arm 2, Global Photographic Assessment (Omnia System); assay type: in vivo, human; details: 2 mg once every other day, 6 months, 20 treated
Description: (§1) The description of the experiments and their results are presented in the 4 tables below. In these experiments the subjects self-administered CEP for at least 6 months.

[2] = prior medical use of CEP; cited from earlier work
[3] = tested on: androgenetic alopecia; assay: CEP in subjects with androgenetic alopecia, overall findings of the experiments; assay type: in vivo, human; details: inferred from benefit in users who skipped daily doses
Description: It is effective when dosed once daily or even once every other day, both of which make compliance much easier than dividing the doses into greater frequency. It is effective without regard to consumption following meals.
as §1
Some users were not perfectly compliant, sometimes skipping their daily doses. […] The expected effective dose range is from about 0.5 mg per day to about 100 mg per day.

[4] = tested on: Androgenetic Alopecia Males; assay: Androgenetic Alopecia Males Arm 1, Global Photographic Assessment (Omnia System); assay type: in vivo, human; details: 2 mg once daily, 6 months, 20 treated
Description: as §1

[5] = tested on: Androgenic Alopecia Females; assay: Androgenic Alopecia Females, Global Photographic Assessment (Omnia System); assay type: in vivo, human; details: 2 mg daily, 6 months, 15 treated
Description: as §1

[6] = tested on: DHT levels; details: 1 mg dose taken daily; cited from earlier work
[7] = tested on: male pattern baldness; details: cited from earlier work

COc1ccc2cc1Oc1ccc(cc1)C[C@H]1c3c(cc4c(c3Oc3cc5c(cc3OC)CCN(C)[C@@H]5C2)OCO4)CCN1C [Cepharanthine]
number of subjects with score Greatly decreased [1]: 0
number of subjects with score Greatly increased [1]: 0
number of subjects with score Moderately decreased [1]: 0
number of subjects with score Moderately increased [1]: 5
number of subjects with score No change [1]: 4
number of subjects with score Slightly decreased [1]: 2
number of subjects with score Slightly increased [1]: 9
safety issues [2]: No safety issues have been observed
side effects [2]: very rarely reported
effective dose [3]: about 0.5 mg CEP a day
number of subjects with score Greatly decreased [4]: 0
number of subjects with score Greatly increased [4]: 1
number of subjects with score Moderately decreased [4]: 0
number of subjects with score Moderately increased [4]: 7
number of subjects with score No change [4]: 3
number of subjects with score Slightly decreased [4]: 1
number of subjects with score Slightly increased [4]: 8
number of subjects with score Greatly decreased [5]: 0
number of subjects with score Greatly increased [5]: 1
number of subjects with score Moderately decreased [5]: 0
number of subjects with score Moderately increased [5]: 2
number of subjects with score No change [5]: 3
number of subjects with score Slightly decreased [5]: 1
number of subjects with score Slightly increased [5]: 8

CC(C)(C)NC(=O)[C@H]1CC[C@H]2[C@@H]3CC[C@H]4NC(=O)C=C[C@]4(C)[C@H]3CC[C@]12C [finasteride, Finasteride]
lowering of DHT levels [6]: ≤ 60%
trial participants with substantial increase in hair growth ([7]; clinical trials, men): 65%
men in whom progression of hair loss stopped ([7]; men taking the drug during clinical trials): 86%
men experiencing transient sexual side effects including erectile and libido difficulties ([7]; men): Less than 2%
